# Columns and labels:
# [1] = Solubility of the peptide; assay type: physicochemical; conditions: peptide chemically modified at the termini
# Excerpt: (§1) A 33-mer peptide (RG33) that corresponds to the two Class Y helices (11 and 22 residues, respectively) of the C-terminal domain of ApoA-I (corresponding to regions 209–219 and 220–241 of ApoA-I, respectively) was synthesized and chemically modified at the termini for increased stability (Fig. 1a), and analyzed by SDS-PAGE (Fig. 1b; Suppl. Fig.). Such modifications are known to lead to loss of the terminal charges of the modified peptide with potential reduction in solubility. […] Moreover, the stability of the peptide was tested by incubation for up to 90 min in either PBS or human or mouse plasma followed by LC–MS analysis of the peptide in the complex mixture, or for longer time periods (up to 168 h at 5 °C or 22 °C) in PBS followed by LC-UV analysis of the pure peptide. […] The extent of degradation in plasma was assumed not to affect the in vitro and in vivo analyses made herein. Nevertheless, while not needed for the current study, further modifications aimed at prolonging the half-life of the RG33 peptide in plasma would be beneficial for therapeutic uses.
# Figure 1 Peptide characterization for RG33. (a) Full peptide sequence. (b) Peptide purity as shown by Tris/Tricine SDS PAGE visualized by coomassie staining, 5 μg/well. (c) Stability of native or refolded RG33 over time in phosphate buffer, human plasma or mouse plasma. GraphPad Prism (version 8.0) (www.graphpad.com) was used. […]
# [2] = Stability in PBS (LC-MS up to 90 min; LC-UV up to 168 h); assay type: physicochemical
# Procedure: (§2) Mouse CD-1 plasma (heparin) was from Novakemi AB. Analysis was performed using LC–MS/MS, a Sciex QTRAP 6500 coupled to a Waters Acquity LC system with an attached HSS T3 2 × 50 mm column. A 5%-100% acetonitrile gradient and 0.1% formic acid was used as mobile phase.
# as §1
# Figure 1 Peptide characterization for RG33. (a) Full peptide sequence. (b) Peptide purity as shown by Tris/Tricine SDS PAGE visualized by coomassie staining, 5 μg/well. (c) Stability of native or refolded RG33 over time in phosphate buffer, human plasma or mouse plasma. GraphPad Prism (version 8.0) (www.graphpad.com) was used. TEXT PRINTED IN THE PICTURE: (a) RG33: MW (g/mol): 3790.42; Solubility: > 3.0 mg/ml
# [3] = Stability in human plasma (LC-MS/MS); assay type: in vitro ADME; conditions: human plasma (citrate), pooled from four donors, incubation up to 90 min
# Procedure: Peptide (lyophilized powder) produced by Red Glead AB (Lund, Sweden) was reconstituted as previously described. Peptide concentration was determined using a NanoDrop 2000c spectrophotometer (Thermo Scientific), and integrity was analysed by Tris-Tricine SDS-PAGE followed by Coomassie staining and by circular dichroism spectroscopy (CD). CD spectra were acquired on a Jasco J-810 spectropolarimeter equipped with a Jasco CDF-426S Peltier, set to 25 °C[18]. Samples were loaded into a 1 mm quartz cuvette and CD spectra acquired at 25 °C in the far-UV range 200–260 nm, with a 1 nm wavelength increment. Averages of five scans were baseline-subtracted (PBS buffer; 25 mM phosphate, 150 mM NaCl) and the alpha-helical content was calculated from the molar ellipticity at 222 nm as previously described[11],[19]. Human plasma (citrate) was from Blodcentralen at the Uppsala academic hospital and pooled from four healthy volunteer blood donors after giving informed consent for general research use. […]
# A 33-mer peptide (RG33) that corresponds to the two Class Y helices (11 and 22 residues, respectively) of the C-terminal domain of ApoA-I (corresponding to regions 209–219 and 220–241 of ApoA-I, respectively) was synthesized and chemically modified at the termini for increased stability (Fig. 1a), and analyzed by SDS-PAGE (Fig. 1b; Suppl. Fig.). […]
# [4] = Stability in mouse plasma (LC-MS/MS); assay type: in vitro ADME; conditions: mouse CD-1 plasma (heparin), incubation up to 90 min
# Procedure: as §2, §1
# Figure 1 Peptide characterization for RG33. […]
# [5] = rHDL formation / solubilization of DMPC multilamellar vesicles, dynamic light scattering; conditions: 100 nm DMPC MLVs, 4 days at 24 °C, DLS
# Procedure: 1,2-Dimyristoyl-sn-glycero-3-phosphocholine (DMPC; Avanti Polar Lipids) was formed into 100 nm multilamellar vesicles (MLV) via extrusion using the LiposoFast system (Avestin) as previously described. MLV were incubated with RG33 at indicated ratios for 4 days at 24 °C to form rHDL. The resulting particle sizes were measured by Dynamic Light Scattering using a Zetasizer APS (Malvern Instruments).
# Figure 2 Peptide structure and lipid complex formation activity of RG33. (a) Circular dichroism spectroscopy of RG33 dissolved in PBS at 0.2 mg/ml. This spectrum represents the average of five measurements using five separate solutions. (b) Helical wheel analysis of residues 209 to 241 of the ApoA-I protein. One-letter code for amino acids is used and numbered 1 to 33 with start at residue 209. (c) rHDL particles were prepared by incubating the MLVs with RG33 peptide in the molar ratios noted at 24 °C for four days. Particle size distribution was analysed by DLS and frequency curves generated for RG33. Both MLVs alone (data on pure 100 nm MLVs is adapted from[15]) and lipid-free peptide are included as controls. GraphPad Prism (version 8.0) (www.graphpad.com) was used. Data represents five individual experiments.
# As described above, the amphipathic organization of the RG33 peptide is expected to promote efficient lipid-binding. […]
# [6] = previously shown; cited from earlier work
# Excerpt: Circular dichroism (CD) spectroscopy (Fig. 2a) was next used to assay for peptide integrity and secondary structure. The helical content of the RG33 peptide in solution was based on the CD data and estimated to be on average 31%. This is higher than the helical content of the 190–243 ApoA-I peptide which was previously shown to be in the range of 17–21% alpha-helix[11]. A high helical content combined with an amphipathic arrangement of the helices is important for the lipid-binding function. Indeed, the binding of lipids induces formation of amphipathic helixes of the ApoA-I protein[23]. In li ...
# J774 macrophages = conditions: previously described; cited from earlier work
# Procedure: To analyze this, cultured J774 macrophages were loaded with isotope-labelled cholesterol, followed by incubation with RG33 (LF or LB) at specified concentrations for 2 h (Fig. 3a).
Substance,Solubility [1],"Stability in PBS, shorter incubation ([2]; PBS (phosphate buffer), incubation up to 90 min, LC-MS analysis)","Stability in PBS, longer storage at 5 °C ([2]; PBS, up to 168 h (a week) at 5 °C, LC-UV analysis of the pure peptide, data not shown)","Stability in PBS, longer storage at 22 °C ([2]; PBS, up to 168 h (a week) at 22 °C, LC-UV analysis of the pure peptide, data not shown)",Stability in human plasma [3],Stability in mouse plasma [4],Solubilization of DMPC MLVs at 1:50 peptide-to-lipid molar ratio [5],Helical content (alpha-helix) [6],"Fold increase in Vmax, LB vs LF (J774 macrophages)"
Ac-PALEDLRQGLLPVLESFKVSFLSALEEYTKKLN-NH2 [RG33],> 3.0 mg/mL,intact,intact,intact,some degradation,some degradation,only partial solubilization,–,–
"RG54: Peptide corresponding to amino acid residues 190–243 of ApoA-I protein (AEYHAKATEHLSTLSEKAKPALEDLRQGLLPVLESFKVSFLSALEEYTKKLNTQ; UniProt P02647 214-267, looked up, fragment)",–,–,–,–,–,–,–,17–21%,twofold increase
